Measured values reported in patent publication US20250215030A1, “STAT MODULATORS AND USES THEREOF” (Recludix Pharma, Inc., priority 2022, published 2025).

Legend:
[1] = target: T1, Recombinant STAT3 protein (STAT3(G127-I722)) (Homo sapiens, UniProt P40763); experiment: STAT3 Fluorescence Polarization (FP) Assay; type: binding; settings: STAT3(G127-I722) 25 nM, probe 5-FAM-GpYLPQTV-NH2 2 nM, 45-minute incubation
T1 construct: STAT3(G127-I722)
Procedure, shortened: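 Serially diluted compounds (1% DMSO) were mixed with 2 nM fluorescent phosphotyrosine peptide and 25 nM STAT3 construct G127-I722, pH 7.4, incubated 45 min at room temperature. IC50 values from fitted polarization curves are reported as categories A (≤100 nM), B, C, D (>10 μM).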

[2] = target: T2, Recombinant STAT6 protein (STAT6(W123-T658)) (Homo sapiens, UniProt P42226); experiment: STAT6 Fluorescence Polarization (FP) Assay; type: binding; settings: STAT6(W123-T658) 250 nM, probe 5-FAM-ApYKPFQDLI-NH2 2 nM, 45-minute incubation
T2 construct: STAT6(W123-T658)
T2 sequence (P42226 123-658): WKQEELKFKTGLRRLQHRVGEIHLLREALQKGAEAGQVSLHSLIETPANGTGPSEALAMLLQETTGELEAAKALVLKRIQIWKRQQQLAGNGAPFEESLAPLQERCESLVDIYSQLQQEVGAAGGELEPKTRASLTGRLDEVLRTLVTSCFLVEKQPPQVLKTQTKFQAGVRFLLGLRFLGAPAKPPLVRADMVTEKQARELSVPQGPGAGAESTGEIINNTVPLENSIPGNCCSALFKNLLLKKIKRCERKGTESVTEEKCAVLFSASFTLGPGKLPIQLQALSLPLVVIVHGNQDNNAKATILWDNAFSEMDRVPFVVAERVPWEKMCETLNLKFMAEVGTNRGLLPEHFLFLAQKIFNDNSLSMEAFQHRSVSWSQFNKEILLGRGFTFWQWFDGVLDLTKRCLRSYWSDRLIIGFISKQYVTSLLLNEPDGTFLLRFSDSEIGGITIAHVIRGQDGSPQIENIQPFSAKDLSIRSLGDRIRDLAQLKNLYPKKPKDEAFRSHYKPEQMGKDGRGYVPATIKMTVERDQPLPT
Procedure, shortened: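 Competitive displacement of a fluorescent phosphotyrosine peptide (2 nM) from recombinant STAT6 W123-T658 (250 nM), 45 min at room temperature in 10 mM HEPES pH 7.4, 50 mM NaCl, 2 mM DTT. mP fitted against log compound for IC50, grouped A (≤300 nM) to D (>30 μM).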

T1 sequence (P40763 127-722, species assumed): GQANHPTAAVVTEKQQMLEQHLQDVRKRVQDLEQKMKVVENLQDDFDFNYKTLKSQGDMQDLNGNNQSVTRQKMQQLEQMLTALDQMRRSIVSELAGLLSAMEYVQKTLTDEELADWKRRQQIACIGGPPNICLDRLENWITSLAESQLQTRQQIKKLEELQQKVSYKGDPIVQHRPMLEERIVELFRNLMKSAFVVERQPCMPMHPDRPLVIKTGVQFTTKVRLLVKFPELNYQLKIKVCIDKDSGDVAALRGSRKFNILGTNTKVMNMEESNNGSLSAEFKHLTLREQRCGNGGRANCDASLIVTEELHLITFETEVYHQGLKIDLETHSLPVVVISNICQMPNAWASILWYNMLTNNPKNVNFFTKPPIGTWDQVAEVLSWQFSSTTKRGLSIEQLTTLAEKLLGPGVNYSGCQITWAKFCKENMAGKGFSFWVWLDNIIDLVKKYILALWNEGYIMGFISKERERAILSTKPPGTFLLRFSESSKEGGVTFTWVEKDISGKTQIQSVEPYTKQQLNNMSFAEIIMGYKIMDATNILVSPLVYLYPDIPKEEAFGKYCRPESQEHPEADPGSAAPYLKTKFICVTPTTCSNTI

SMILES | IC50 [1] [µM] | IC50 [2] [µM]
O=C(N[C@H]1C[C@@H]2C[C@@H]2C[C@H]2CC[C@@H](C(=O)N3CC4C3CCN4c3cccnc3)N2C1=O)c1cc2cc(CP(=O)(O)O)ccc2s1 (stereo partly drawn) [Example 275, ((2-(((3S,6S,7aS,8aR,9aR)-5-oxo-3-(2-(pyridin-3-yl)-2,6-diazabicyclo[3.2.0]heptane-6-carbonyl)decahydro-1H-cyclopropa[d]pyrrolo[1,2-a]azocin-6-yl)carbamoyl)benzo[b]thiophen-5-yl)methyl)phosphonic acid] | 0.1 to 1 | 3 to 30
COc1cc(C2CN(C(=O)[C@@H]3CC[C@@H]4C[C@H]5C[C@H]5C[C@H](NC(=O)c5cc6cc(C(F)P(=O)(O)O)ccc6s5)C(=O)N43)C2)on1 (stereo partly drawn) [Example 336, (fluoro(2-(((3S,6S,7aS,8aR,9aR)-3-(3-(3-methoxyisoxazol-5-yl)azetidine-1-carbonyl)-5-oxodecahydro-1H-cyclopropa[d]pyrrolo[1,2-a]azocin-6-yl)carbamoyl)benzo[b]thiophen-5-yl)methyl)phosphonic acid] | 0.1 to 1 | 3 to 30
Cc1ccncc1C1CN(C(=O)[C@@H]2CC[C@@H]3C[C@H]4C[C@H]4C[C@H](NC(=O)c4cc5cc(C(F)P(=O)(O)O)ccc5s4)C(=O)N32)C1 (stereo partly drawn) [Example 280, (fluoro(2-(((3S,6S,7aS,8aR,9aR)-3-(3-(4-methylpyridin-3-yl)azetidine-1-carbonyl)-5-oxodecahydro-1H-cyclopropa[d]pyrrolo[1,2-a]azocin-6-yl)carbamoyl)benzo[b]thiophen-5-yl)methyl)phosphonic acid] | < 0.1 | 3 to 30
COCC1(c2ccccc2)CN(C(=O)[C@@H]2CC[C@@H]3C[C@@H]4C[C@@H]4C[C@H](NC(=O)c4cc5cc(C(F)(F)P(=O)(O)O)ccc5s4)C(=O)N32)C1 [Compound 84, (difluoro(2-(((3S,6S,7aR,8aS,9aR)-3-(3-(methoxymethyl)-3-phenylazetidine-1-carbonyl)-5-oxodecahydro-1H-cyclopropa[d]pyrrolo[1,2-a]azocin-6-yl)carbamoyl)benzo[b]thiophen-5-yl)methyl)phosphonic acid] | < 0.1 | 3 to 30
CS(=N)(=O)CC1CN(C(=O)[C@@H]2CC[C@@H]3C[C@@H]4C[C@@H]4C[C@H](NC(=O)c4cc5cc(C(F)(F)P(=O)(O)O)ccc5s4)C(=O)N32)C1 (stereo partly drawn) [Compound 83, (difluoro(2-(((3S,6S,7aR,8aS,9aR)-3-(3-((S-methysulfonimidoyl)methyl)azetidine-1-carbonyl)-5-oxodecahydro-1H-cyclopropa[d]pyrrolo[1,2-a]azocin-6-yl)carbamoyl)benzo[b]thiophen-5-yl)methyl)phosphonic acid] | < 0.1 | 3 to 30
O=C(N[C@H]1C[C@@H]2C[C@@H]2C[C@H]2CC[C@@H](C(=O)N3CCC4C3CN4c3cccnc3)N2C1=O)c1cc2cc(C(F)(F)P(=O)(O)O)ccc2s1 (stereo partly drawn) [Example 259, (difluoro(2-(((3S,6S,7aS,8aR,9aR)-5-oxo-3-(6-(pyridin-3-yl)-2,6-diazabicyclo[3.2.0]heptane-2-carbonyl)decahydro-1H-cyclopropa[d]pyrrolo[1,2-a]azocin-6-yl)carbamoyl)benzo[b]thiophen-5-yl)methyl)phosphonic acid] | < 0.1 | 0.3 to 3
O=C(N[C@H]1C[C@@H]2C[C@@H]2C[C@H]2CC[C@@H](C(=O)N3C[C@@H]4[C@H]3CCN4c3cccnc3)N2C1=O)c1cc2cc(C(F)P(=O)(O)O)ccc2s1 (stereo partly drawn) [Example 296, (fluoro(2-(((3S,6S,7aS,8aR,9aR)-5-oxo-3-((1R,5R)-2-(pyridin-3-yl)-2,6-diazabicyclo[3.2.0]heptane-6-carbonyl)decahydro-1H-cyclopropa[d]pyrrolo[1,2-a]azocin-6-yl)carbamoyl)benzo[b]thiophen-5-yl)methyl)phosphonic acid] | < 0.1 | 0.3 to 3

The next lines start with the values.

IC50 [1] [µM] | IC50 [2] [µM] | SMILES
< 0.1 | 3 to 30 | C[C@]12CC(NC(=O)c3cc4cc(C(F)(F)P(=O)(O)O)ccc4s3)C(=O)N3[C@H](CC[C@H]3C(=O)N3CC(c4cccnc4)C3)[C@H]1C2 (stereo partly drawn) [Compound 37, (difluoro(2-(((3S,6S,7aS,8aR,9aR)-7a-methyl-5-oxo-3-(3-(pyridin-3-yl)azetidine-1-carbonyl)decahydro-1H-cyclopropa[d]pyrrolo[1,2-a]azocin-6-yl)carbamoyl)benzo[b]thiophen-5-yl)methyl)phosphonic acid]
< 0.1 | 3 to 30 | CN1CCN(c2ccncc2C2CN(C(=O)[C@@H]3CC[C@@H]4C[C@H]5C[C@H]5C[C@H](NC(=O)c5cc6cc([C@H](F)P(=O)(O)O)ccc6s5)C(=O)N43)C2)CC1 (single isomer, unassigned) [Example 403]
< 0.1 | 3 to 30 | O=C(N[C@H]1C[C@@H]2C[C@@H]2C[C@H]2CC[C@@H](C(=O)N3CC(N4CCS(=O)(=O)CC4)C3)N2C1=O)c1cc2cc(C(F)(F)P(=O)(O)O)ccc2s1 [Compound 108, ((2-(((3S,6S,7aS,8aR,9aR)-3-(3-(1,1-dioxidothiomorpholino)azetidine-1-carbonyl)-5-oxodecahydro-1H-cyclopropa[d]pyrrolo[1,2-a]azocin-6-yl)carbamoyl)benzo[b]thiophen-5-yl)difluoromethyl)phosphonic acid]
< 0.1 | 0.3 to 3 | Cc1nnc(C2(C)CN(C(=O)[C@@H]3CC[C@@H]4C[C@@H]5C[C@@H]5C[C@H](NC(=O)c5cc6cc(C(F)(F)P(=O)(O)O)ccc6s5)C(=O)N43)C2)o1 [Compound 82, (difluoro(2-(((3S,6S,7aR,8aS,9aR)-3-(3-methyl-3-(5-methyl-1,3,4-oxadiazol-2-yl)azetidine-1-carbonyl)-5-oxodecahydro-1H-cyclopropa[d]pyrrolo[1,2-a]azocin-6-yl)carbamoyl)benzo[b]thiophen-5-yl)methyl)phosphonic acid]
< 0.1 | 3 to 30 | NC(=O)N1C[C@H](NC(=O)[C@@H]2CC[C@@H]3C[C@H]4C[C@H]4C[C@H](NC(=O)c4cc5cc(C(F)P(=O)(O)O)ccc5s4)C(=O)N32)C(F)(F)C1 (stereo partly drawn) [Example 340, ((2-(((3S,6S,7aS,8aR,9aR)-3-(((S)-1-carbamoyl-4,4-difluoropyrrolidin-3-yl)carbamoyl)-5-oxodecahydro-1H-cyclopropa[d]pyrrolo[1,2-a]azocin-6-yl)carbamoyl)benzo[b]thiophen-5-yl)fluoromethyl)phosphonic acid]
< 0.1 | 3 to 30 | O=C(N[C@H]1C[C@@H]2C[C@@H]2C[C@H]2CC[C@@H](C(=O)N3CC(c4cncnc4)C3)N2C1=O)c1cc2cc(C(F)(F)P(=O)(O)O)ccc2s1 [Compound 61, (difluoro(2-(((3S,6S,7aS,8aR,9aR)-5-oxo-3-(3-(pyrimidin-5-yl)azetidine-1-carbonyl)decahydro-1H-cyclopropa[d]pyrrolo[1,2-a]azocin-6-yl)carbamoyl)benzo[b]thiophen-5-yl)methyl)phosphonic acid]
< 0.1 | 3 to 30 | O=C(N[C@H]1C[C@H]2C[C@H]2C[C@H]2CC[C@@H](C(=O)N[C@H]3CN(c4cccnc4)C[C@@H]3F)N2C1=O)c1cc2cc(CP(=O)(O)O)ccc2s1 [Example 253, ((2-(((3S,6S,7aR,8aS,9aR)-3-(((3S,4S)-4-fluoro-1-(pyridin-3-yl)pyrrolidin-3-yl)carbamoyl)-5-oxodecahydro-1H-cyclopropa[d]pyrrolo[1,2-a]azocin-6-yl)carbamoyl)benzo[b]thiophen-5-yl)methyl)phosphonic acid]
